EC50 data for nine molecules are collected here from PubChem BioAssay AID743236 (The Scripps Research Institute Molecular Screening Center, 2013).

For the test, the system named is Ga16-expressing cells, calcium fluorescence, agonist counterscreen. Nature of the test: nonselective Ga16 agonists, potency, late-stage follow-up, counter-screen for TAAR1 antagonist project, cell-based, fluorescence, dose response (AID 743236).

Activity calls are given as the source filed them. No rule for the calls is given here.

In the case of `Cc1cccc(C(C#N)c2nc3ccccc3nc2C(F)(F)F)c1` (centres undefined), the EC50 is > 29.9 µM (inactive).
With `CCCCC(=O)Nc1ccc(C(=O)Nc2ccc(S(=O)(=O)N3CCCC3)cc2)cc1`, the EC50 was > 29.9 µM (inactive).
Regarding `COc1cccc(-c2nn(-c3ccccc3)cc2C(=O)Nc2nccs2)c1`, the EC50 is > 29.9 µM (inactive).
Then `Cc1nn(Cc2c(F)c(F)c(F)c(F)c2F)c(C)c1NC(=O)c1ccc(COc2ccccc2Cl)cc1`, with > 29.9 µM (inactive).
Then `COc1cc(NC(=O)c2cc3ccccc3o2)c(OC)cc1Cl`, with > 29.9 µM (inactive); and `O=C(NCCn1cc(SCc2ccccc2F)c2ccccc21)c1c(F)cccc1F`, with > 29.9 µM (inactive); and `CC(=O)c1ccc(NC(=O)c2ccc(COc3ccccc3[N+](=O)[O-])o2)cc1`, with > 29.9 µM (inactive).
With `Cc1coc(NC(=O)CSc2nc(-c3ccc(Cl)cc3)cc(C(F)(F)F)c2C#N)n1`, the EC50 was > 29.9 µM (inactive).
`Cc1ccc(CSCC(=O)Nc2cc(S(=O)(=O)N3CCOCC3)ccc2OCC(F)(F)F)cc1`: the EC50 is > 29.9 µM (inactive).
